Data reported in patent publication US20170037425A1, “METHOD FOR IMPROVING PLANT TRAIT” (SHANGHAI INSTITUTES FOR BIOLOGICAL SCIENCES, CHINESE …, priority 2012, published 2017).

Key:
Brassica [1] = experiment: Chlorophyll and pigment contents of transgenic Brassica leaves; format: in vivo, Brassica napus L.
Protocol: Chlorophylls and pigments were extracted from Brassica leaves with 80% acetone. Chlorophyll contents were measured as described by Arnon D J 1949, Plant Physiol 24:1-15. Carotenoid contents were measured as described by Niyogi et al., (1997), Proc. Natl. Acad. Sci. U.S.A. 94, 14162-14167.

[2] = In vitro H2O hydrolysis and oxygen evolution catalyzed by LEAT protein under light; format: biochemical; set-up: key to O2 evolution activity: +: similar O2 evolution activity as that of YFP; ++: higher O2 evolution activity than that of YFP by at least one order of magnitude; weak: lower activity than that of YFP by at least one order of magnitude
Protocol: 1.85 ml of 50 mM phosphate buffer (pH6.5) was added in the reaction vessel of Clark-type oxygen electrode, then LEAT proteins (at a final concentration of 0.02-1 μg/ml) and 400 μM 2,3,5-trimethyl-1,4-benzoquinone (TMBQ) or other quinones were sequentially added into the buffer in dark. The oxygen evolution rate was measured under the light with corresponding excitation wave length for LEAT proteins and light intensity at 1-2 μmol m^−2 s^−1.

Rubisco = Rubisco activity assay in transgenic Brassica leaves; format: in vivo, Brassica napus L.
Protocol: Ribulose-1,5-bisphosphate carboxylase/oxygenase (Rubisco) carboxylase activity assay: Soluble proteins were extracted from fresh leaves with extraction buffer (50 mM Tris-HCl pH 7.8, 1 mM EDTA, 50 mM NaCl, 2 mM β-Mercaptoethanol). The homogenate was centrifuged (12,000 g for 6 min at 4° C.) and the supernatant was used for Rubisco activity assay. Carboxylase activity of Rubisco was measured with ^14C-labelled method as described in (Wang Z Y, Snyder G W, Esau B D, Portis A R, Ogren W L (1992) Species-dependent variation in the interaction of substrate-bound ribulose-1,5-bisphosphate carboxylase/oxygenase (Rubisco) and Rubisco activase. Plant Physiology 100: 1858-1862).

[3] = tested on: etiolated Brassica hypocotyls; experiment: Respiration rate and oxygen evolution in etiolated hypocotyls of transgenic Brassica; format: in vivo, Brassica napus L.; conditions: etiolated hypocotyl
Protocol: 5-6 individual hypocotyls (5-6 cm in length) were collected from 1-week-old etiolated Brassica. The roots and cotyledons were detached and the hypocotyls were cut into 1 mm in length after weighing. The hypocotyls were put into the reaction vessel of the Clack-type oxygen electrode. The changes of dissolved oxygen content in solution over measuring time were recorded in dark or under light, respectively. Then 15 mM HgCl2 was added to block the respiration, and the change of dissolved oxygen content in solution was recorded. The difference between the respiration rate under light and in dark, and the oxygen evolution rate when respiration was blocked by HgCl2 was calculated.

Brassica [4] = experiment: Net photosynthetic rate of transgenic Brassica; format: in vivo, Brassica napus L.; conditions: for net photosynthetic rate, increase compared with wild type: transgenic Brassica
Protocol: Gas exchange was measured using photosynthetic infrared gas analysis system (LI-6400, Li-Cor Inc, Lincoln, Nebr., USA). The net photosynthetic rate (Pn) and stomatal conductance (Gs) was measured. Sunlight and artificial light were used as artificial light sources for measurement. The ambient CO2 during the measurements was controlled at 400 μmol mol^−1. The ambient temperature was controlled at the temperature for plant growth. Six leaves were measured for each line of plant. In addition, for the CO2 response curve of the plant leaf, the light intensity was set at PPFD of 1500 μmol m^−2s^−1 with artificial light source. The Pn under 50-1200 ppm CO2 was measured.

Brassica [5] = experiment: Millisecond-delayed light emission in transgenic Brassica leaves; format: in vivo, Brassica napus L.; conditions: white light and green light
Protocol: Measurements of millisecond-delayed light emission were carried out according to the method described in Chen et al., 2010 (Reversible association of ribulose-1,5-bisphosphate carboxylase/oxygenase activate with the thylakoid membrane depends upon the ATP level and pH in rice without heat stress. Journal of Experimental Botany 61: 2939-2950). Leaf samples with same size were treated in dark for same time and millisecond-delayed light emission was measured in situ. The leaf sample was illuminated with light passing through holes arranged on two rotating wheels, so that the measurement can be partitioned into consecutive cycles of 1 ms excitation by light followed by 4.6 ms darkness. The delayed light emission between 2.8 and 3.8 ms after every flash was recorded. The white light source was supplied by a halogen lamp, and the green light source was obtained by passing the white light source through a 530 nm filter.

[6] = Electron donation by pre-illuminated LEAT protein (NAD+/NADP+ reduction); format: biochemical
Protocol: FIG. 1. The effects of light on NAD^+ or NAPD^+ reduction by YFP.
It was reported that proteins such as GFP can function as electron donor to reduce the oxidized small compounds such as NAD^+, potassium ferricyanide, and some proteins such as cytochrome c, and FAD-containing proteins (Bogdanov A. M. et al, 2009, Nature Chemical Biology. 5:459-461), The invertors used E. coli to express and purify recombinant proteins. […] Quinone reduction under light was analyzed by monitoring the decrease of absorption at 436 nm.

Brassica [7] = experiment: Chlorophyll fluorescence and P700 oxidation-reduction in transgenic Brassica; format: in vivo, Brassica napus L.
Protocol: Electron transfer efficiency of leaves was measured by chlorophyll fluorescence. The change of chlorophyll fluorescence parameter was monitored with PAM-2000 fluorometer (Walz, Effeltrich, Germany). Electron transfer efficiency of leaves in response to light was measured after 30-min-dark adaption, Fo represents minimum PSII fluorescence after measuring light is turned on. Fm represents maximum PSII fluorescence after a saturating pulse of white light is turned on. The photochemical efficiency of PSII was calculated with the equation: ΦPSII=(Fm′−Fs)/Fm′ (Genty, B., Briantais, J. M., Baker, N. R. (1989). The relationship between the quantum yield of photosynthetic electron transport and quenching of Chl fluorescence. Biochimica et Biophysica Acta, 990, 87-92). The excitation pressure of chlorophyll was calculated with the equation: 1−qL=1−(Fm′−Fs)/(Fm′−Fo)×Fo′/Fs (Kramer, D. M., Johnson, G., Kiirats, O., Edwards, G. E. (2004) New fluorescence parameters for the determination of Q(A) redox state and excitation energy fluxes. Photosynthesis Research, 79, 209-218).
PAM chlorophyll fluorometer with ED-P700 DW-E light absorb unit was used to measure the change of the light absorb at 810-830 nm, then the change of oxidation-reduction state of P700 was obtained. […]

mCherry: red fluorescent protein, amino acid sequence SEQ ID NO: 2
accessory photosynthetic pigments (carotenoids) content (Brassica [1]): increased
chlorophyll content and ratio of Chl a/b (Brassica [1]): did not change
water photohydrolysis and O2 evolution activity under light ([2]; TMBQ substituted with DQ or UQ): does not have water photohydrolysis and O2 evolution activity
activity of water hydrolysis among the quinones tested (order) ([2]; different quinones, under light): TMBQ>DMBQ2>MBQ>DMBQ1
O2 evolution activity ([2]; water hydrolysis and O2 evolution under light, relative to YFP): +
Rubisco activity and Rubisco activation state (Rubisco): increased
net O2 evolution ([3]; O2 uptake inhibited by HgCl2, under light): observed significantly
O2 uptake rate under light vs WT ([3]; without HgCl2): significant lower
net photosynthesis rate vs WT (Brassica [4]; phytotron-grown transgenic Brassica, white light and green light): significantly increased
net photosynthesis rate vs WT and empty vector (Brassica [4]; transgenic Brassica in natural field conditions, different light intensities): significantly increased
net photosynthetic rate, increase compared with wild type (Brassica [4]; 400 μmol m^−2s^−1): 31%
net photosynthetic rate, increase compared with wild type (Brassica [4]; 800 μmol m^−2s^−1): 28%
net photosynthetic rate, increase compared with wild type (Brassica [4]; 1200 μmol m^−2s^−1): 16%
slow phase of millisecond delay light evolution (ms-DLE) vs WT (Brassica [5]): higher
function as electron donor under light [6]: cannot continuously provide electrons under light
initial rate of P700^+ reduction (PSI cyclic electron transport) vs WT (Brassica [7]; transgenic Brassica leaves): much higher
photochemical efficiency of PSII (ΦPSII) (Brassica [7]; transgenic Brassica transferred from red+blue light to white light): increased
